{"source": "paper PMC10823468", "about": "“Design, Synthesis, and Evaluation of New 1H-Benzo[d]imidazole Based PqsR Inhibitors as Adjuvant Therapy for Pseudomonas aeruginosa Infections” (Journal of Medicinal Chemistry, 2024)", "key": {"[1]": {"tested_on": "PqsR (PqsR-controlled pqsA promoter, PAO1-L mCTX::PpqsA-lux)", "test": "Bioluminescent reporter assay, PAO1-L mCTX::PpqsA-lux", "format": "cell-based, Pseudomonas aeruginosa", "conditions": "Pseudomonas aeruginosa, PAO1, read-out: IC50 (μM) PAO1-L mCTX::PpqsA-lux", "experimental": "(§1) An extensive SAR was performed on 6a to investigate the role of substitutions around various positions of the benzimidazole ring (groups R1–R3) as well as the aromatic tail (groups R4–R5) to fine-tune the potency of this series (6a–u) (Table 2). The activity of these analogues to inhibit the pqs QS system was evaluated in the PAO1-L and PA14 strains (that belong to the two major P. aeruginosa genomic lineages), both harboring a chromosomally integrated mCTX::PpqsA-lux transcriptional fusion to report for the activity of pqs system. Successful pharmacological blocking of AQ signal reception at the level of PqsR leads to a reduced transcription of the pqsA-lux genes and ultimately reduction in the luminescence readout.\n(§2) Strains PA14 mCTX::PpqsA-lux and PAO1-L mCTX::PpqsA-lux were used to detect PqsR-controlled activation of the pqsA promoter, as previously described,[45] and the assay was performed according to a published method.[46] For initial screening, the compounds were tested at a concentration of 10 μM, which was prepared from a 10 mM stock, in DMSO."}, "[2]": {"tested_on": "PqsR (PqsR-controlled pqsA promoter, PA14 mCTX::PpqsA-lux)", "test": "Bioluminescent reporter assay, PA14 mCTX::PpqsA-lux", "format": "cell-based", "conditions": "Pseudomonas aeruginosa, PA14, read-out: IC50 (μM) PA14 mCTX::PpqsA-lux", "experimental": "as §1, §2"}, "[3]": {"tested_on": "GFP-labeled P. aeruginosa PAO1-L biofilms", "test": "Biofilm viability assay, method 2 (tobramycin, GFP-labeled biofilm, PI)", "format": "cell-based, Pseudomonas aeruginosa", "experimental": "Biofilms of PAO1-L were also tested for the impact of 6f on the potentiation of tobramycin activity (method 2).\nFigure 7 Effect of 6f and tobramycin on GFP-labeled P. aeruginosa PAO1-L biofilms. (A) Representative CLSM images: (a) Untreated biofilm; (b) biofilm grown with 6f at 1 μM for 16 h; (c) biofilm treated with 100 μg/mL tobramycin for 2 or 6 h after 16 h of growth; (d) biofilm grown with 1 μM 6f and treated with (6f 1 μM), tobramycin (100 μg/mL) for 2 or 6 h after 16 h of growth. Dead cells and extracellular DNA were stained red with propidium iodide (PI). Three-dimensional (3D) sections and cross sections are shown. Scale bar represents 100 μm. (B) Quantitative analysis of biofilm biomass at different conditions of treatment compared with a solvent vehicle control.\nBiofilms were cultivated on borosilicate glass coverslips in Petri dishes. P. aeruginosa strains, […], was transformed with plasmid pMMG, which constitutively expresses GFP from the Ptac promoter.[50] The tagged strain was grown at 37 °C, for 16 h, in 2 mL of RPMI-1640 (Lonza, Slough, UK), supplemented with 20 mM D-glucose (Sigma–Aldrich, Dorset, UK) and 2 μM FeCl3 (Sigma–Aldrich, Dorset, UK). Cultures were diluted 1:100 in fresh medium and allowed to grow for a further 4 h, or until an OD600 of 0.5 was reached. The mid logarithmic cultures were diluted to an OD600 of 0.01 in 25 mL of RPMI, supplemented with glucose and FeCl3, and inoculated into Petri dishes containing UV sterilized borosilicate glass coverslips (22 mm × 22 mm, thickness no1) (VWR, Lutterworth, UK). Bacterial cells were seeded at 37 ◦C under static conditions for 1.5 h, and compound 6f was supplemented to the 6f treated samples (6f, 6f + Tob samples) at a concentration of 1 μM before dishes were transferred to a shaker at 60 rpm and 37 ◦C for 16 h to form mature biofilms. Tobramycin and propidium iodide were added to the 16 h old cultures at concentrations of 100 μg/mL and 2 μM, respectively, followed by further incubation for 2 or 6 h. […]"}, "[4]": {"tested_on": "A549 human lung epithelial carcinoma cell line", "test": "A549 cytotoxicity assay (resazurin / alamar blue)", "format": "cell-based", "conditions": "at concentrations up to 100 μM (1, 50, 100 μM), 24 h", "experimental": "Establishing the safety profile of new chemical entities is paramount for further drug development. […] The assay employed resazurin reduction, a sensitive fluorometric assay widely used as a standard methodology in drug discovery research.[35] This assay relies on the ability of living cells to reduce resazurin to the fluorescent compound, resorufin, which indicates the rate of the metabolic activity as a means to quantify cell viability.\nCell viability was assessed according to Nimesh et al.[51] on A549 adenocarcinomic human alveolar basal epithelial cell line. The viability of the A549 cell line was assessed after overnight incubation with three concentrations (1, 50, and 100 μM) of the corresponding compound using alamar blue (resazurin) dye. Cells were maintained in the Dulbecco’s Modified Essential Medium (DMEM) supplemented with 10% fetal bovine serum (FBS) and 1% penicillin–streptomycin–neomycin (PSN). After that, 100 μL of suspended cells with a final concentration (1 × 10^4 cells/wall) were seeded in 96-well plates with 100 μL of (1, 50, 100 μM) concentrations of the tested compound was dispensed in sextuplicate. […] The plates were further incubated for 4–6 h and the intensity of the fluorescence was measured using an excitation light of 510 nm and measuring the fluorescence output at 590 nm. The cell viability in each well was normalized to the DMSO reading."}, "[5]": {"set-up": "method as in PMID 33073099", "conditions": "human microsomes; cited from earlier work"}, "[6]": {"set-up": "method as in PMID 33073099", "conditions": "rats; intratracheal; coarse suspension; cited from earlier work"}}, "data": [{"smiles": "CC(C)n1c(NCC(O)COc2ccc(CC#N)cc2)nc2ccc(Cl)cc21", "note": "(stereo not drawn) [Compound 6f, 2-(4-(3-((6-Chloro-1-isopropyl-1H-benzo[d]imidazol-2-yl)amino)-2-hydroxypropoxy)phenyl) Acetonitrile]", "values": [{"measurement": "IC50", "setting": "[1]", "result": "0.07 ± 0.02", "unit": "µM"}, {"measurement": "IC50", "setting": "[2]", "result": "0.09 ± 0.01", "unit": "µM"}, {"measurement": "biofilm killing, combination with tobramycin", "setting": "[3]; 6f 1 μM + tobramycin 100 μg/mL, 2 and 6 h of incubation", "result": "enhanced the killing"}, {"measurement": "live cells in biofilm, combination with tobramycin", "setting": "[3]; 6f 1 μM + tobramycin 100 μg/mL, 6 h", "result": "no live cells present"}, {"measurement": "viability of preformed biofilms, 6f on its own", "setting": "[3]; PAO1-L biofilm, 6f 1 μM", "result": "did not impact on the viability"}, {"measurement": "cytotoxicity for A549 cells", "setting": "[4]", "result": "not cytotoxic"}, {"measurement": "half-life", "setting": "[5]", "result": "relatively short"}, {"measurement": "clearance from lung to plasma", "setting": "[6]", "result": "rapid clearance"}, {"measurement": "systemic clearance", "setting": "[6]", "result": "fast systemic clearance"}]}]}
